This is an account of results in patent US20250115600A1, “COVALENT MODIFIERS OF AKT1 AND USES THEREOF” (Terremoto Biosciences, Inc., priority 2022, published 2025).

Common to all, as to experiment: Live cell target engagement (NanoBRET) in HEK293 cells
What all share (format): cell-based
(Bioluminescence resonance energy transfer reports proximity on the nanometre scale.)

The target of test [1] is AKT2 (Homo sapiens (Human), UniProt P31751). To be noted: HEK293, 2 hours at 37° C.
The target in test [2] is AKT1 WT (Homo sapiens (Human), UniProt P31749). To be noted: HEK293, 2 hours at 37° C.
AKT1 WT, sequence (P31749 whole entry): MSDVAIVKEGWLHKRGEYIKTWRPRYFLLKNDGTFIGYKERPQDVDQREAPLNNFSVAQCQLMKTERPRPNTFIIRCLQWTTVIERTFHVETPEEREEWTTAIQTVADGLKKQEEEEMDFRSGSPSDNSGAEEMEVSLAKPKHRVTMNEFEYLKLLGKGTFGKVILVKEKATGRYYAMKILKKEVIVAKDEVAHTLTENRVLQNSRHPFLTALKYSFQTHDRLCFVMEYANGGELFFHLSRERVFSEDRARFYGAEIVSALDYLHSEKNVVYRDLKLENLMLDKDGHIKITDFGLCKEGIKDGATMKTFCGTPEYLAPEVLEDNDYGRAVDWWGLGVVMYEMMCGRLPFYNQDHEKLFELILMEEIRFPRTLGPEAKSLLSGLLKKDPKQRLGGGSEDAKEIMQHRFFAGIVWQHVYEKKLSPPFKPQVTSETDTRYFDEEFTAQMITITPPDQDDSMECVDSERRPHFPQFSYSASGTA
For test [3], the target named is AKT1 E17K (Homo sapiens (Human), UniProt P31749, E17K). To be noted: for IC50: HEK293, 2 hours at 37° C.
AKT1 E17K, sequence (P31749 whole entry E17K): as the sequence (P31749 whole entry) above, with E17K counted along it

AKT2, sequence (P31751 whole entry): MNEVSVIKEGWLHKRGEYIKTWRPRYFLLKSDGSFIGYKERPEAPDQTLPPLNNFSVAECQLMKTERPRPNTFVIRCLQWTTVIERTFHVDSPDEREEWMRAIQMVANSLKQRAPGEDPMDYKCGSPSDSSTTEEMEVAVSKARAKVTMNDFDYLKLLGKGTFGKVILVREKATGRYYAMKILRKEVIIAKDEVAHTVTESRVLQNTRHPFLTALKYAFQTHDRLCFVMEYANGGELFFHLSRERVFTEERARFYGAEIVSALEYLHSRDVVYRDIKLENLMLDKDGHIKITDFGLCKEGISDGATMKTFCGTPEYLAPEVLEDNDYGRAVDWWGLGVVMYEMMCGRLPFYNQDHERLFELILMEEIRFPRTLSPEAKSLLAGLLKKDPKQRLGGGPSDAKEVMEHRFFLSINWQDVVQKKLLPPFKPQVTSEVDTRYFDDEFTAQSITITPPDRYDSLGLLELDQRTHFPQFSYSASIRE

Usually IC50 stands for the concentration needed to halve the response being measured. In test [1], `Nc1ncccc1-c1nc2ccc(-c3ccccc3)nc2n1-c1ccc(CNCCc2cc(O)c(C=O)c(F)c2)cc1` [Compound 123, 4-(2-((4-(2-(2-aminopyridin-3-yl)-5-phenyl-3H-imidazo[4,5-b]pyridin-3-yl)benzyl)amino)ethyl)-2-fluoro-6-hydroxybenzaldehyde] showed a 50% inhibitory concentration (IC50) of 100 to 500 nM. Besides, the IC50 in test [2] was below 100 nM. For the same compound, in test [3], the “AKT1 E17K IC50: Selectivity vs AKT1 WT” value is recorded as 1, the “AKT1 E17K IC50: Selectivity vs AKT2” value worked out at 2.2 and the IC50 is below 100 nM.

Take `Nc1ncccc1-c1nc2cc(-c3ccccc3)cnc2n1-c1ccc(CNCCc2ccc(C=O)c(O)c2)cc1` [Compound 124, 4-(2-((4-(2-(2-aminopyridin-3-yl)-6-phenyl-3H-imidazo[4,5-b]pyridin-3-yl)benzyl)amino)ethyl)-2-hydroxybenzaldehyde]: in test [1], the IC50 was above 500 nM. Further, in test [2], the IC50 was above 500 nM. In test [3], the “AKT1 E17K IC50: Selectivity vs AKT1 WT” value was determined as 3.1, the “AKT1 E17K IC50: Selectivity vs AKT2” value is on record as 13 and the IC50 lay within 100 to 500 nM.

`CC(NCCc1ccc(O)c(C=O)c1)c1ccc(-n2c(-c3cccnc3N)nc3ccc(-c4ccccc4)nc32)cc1` (stereo not drawn) [Compound 126, 5-(2-((1-(4-(2-(2-aminopyridin-3-yl)-5-phenyl-3H-imidazo[4,5-b]pyridin-3-yl)phenyl)ethyl)amino)ethyl)-2-hydroxybenzaldehyde] returned an IC50 in test [1] of 100 to 500 nM. This compound also returned an IC50 in test [2] below 100 nM. In test [3], the “AKT1 E17K IC50: Selectivity vs AKT1 WT” value came to 5, the “AKT1 E17K IC50: Selectivity vs AKT2” value turned out to be 12 and the IC50 was below 100 nM.

`CC(NCCc1ccc(C=O)c(O)c1)c1ccc(-n2c(-c3cccnc3N)nc3ccc(-c4ccccc4)nc32)cc1` (stereo not drawn) [Compound 127, 4v-(2-((1-(4-(2-(2-aminopyridin-3-yl)-5-phenyl-3H-imidazo[4,5-b]pyridin-3-yl)phenyl)ethyl)amino)ethyl)-2-hydroxybenzaldehyde] came in with an IC50 in test [1] of 100 to 500 nM. Also, in test [2], the half-maximal inhibitory concentration (IC50) was below 100 nM. Further, in test [3], the “AKT1 E17K IC50: Selectivity vs AKT1 WT” value was determined as 2.6, the “AKT1 E17K IC50: Selectivity vs AKT2” value was 7.7 and the IC50 is below 100 nM.

As to `Nc1ncccc1-c1nc2ccc(-c3ccccc3)nc2n1-c1ccc(CNCCc2cc(O)c(C=O)cc2F)cc1` [Compound 128, 4-(2-((4-(2-(2-aminopyridin-3-yl)-5-phenyl-3H-imidazo[4,5-b]pyridin-3-yl)benzyl)amino)ethyl)-5-fluoro-2-hydroxybenzaldehyde], the IC50 in test [1] was 100 to 500 nM; in test [2] it was below 100 nM; in test [3], 100 to 500 nM. Further, in test [3], the “AKT1 E17K IC50: Selectivity vs AKT1 WT” value came out at 0.15. Further, the “AKT1 E17K IC50: Selectivity vs AKT2” value in test [3] came to 0.93.

With `Nc1ncccc1-c1nc2ccc(-c3ccccc3)nc2n1-c1ccc(CNCCCc2ccc(O)c(C=O)c2)cc1` [Compound 129, 5-(3-((4-(2-(2-aminopyridin-3-yl)-5-phenyl-3H-imidazo[4,5-b]pyridin-3-yl)benzyl)amino)propyl)-2-hydroxybenzaldehyde], in test [1], the IC50 is below 100 nM. Further, the IC50 in test [2] was below 100 nM. In test [3], the “AKT1 E17K IC50: Selectivity vs AKT1 WT” value worked out at 0.51, the “AKT1 E17K IC50: Selectivity vs AKT2” value came to 2.5 and the IC50 is below 100 nM.

Compound `Nc1ncccc1-c1nc2ccc(-c3ccccc3)nc2n1-c1ccc(CNCCCc2ccc(C=O)c(O)c2)cc1` [Compound 130, 4-(3-((4-(2-(2-aminopyridin-3-yl)-5-phenyl-3H-imidazo[4,5-b]pyridin-3-yl)benzyl)amino)propyl)-2-hydroxybenzaldehyde] had a 50% inhibitory concentration (IC50) in test [1] of 100 to 500 nM. Besides, the IC50 in test [2] is below 100 nM. In addition, in test [3], the “AKT1 E17K IC50: Selectivity vs AKT1 WT” value came out at 1.5, the “AKT1 E17K IC50: Selectivity vs AKT2” value is given as 7 and the IC50 was below 100 nM.

As to `Nc1ncccc1-c1nc2ccc(-c3ccccc3)nc2n1-c1ccc(C(=O)NCCc2ccc(C=O)c(O)c2)cc1` [Compound 131, 4-(2-(2-aminopyridin-3-yl)-5-phenyl-3H-imidazo[4,5-b]pyridin-3-yl)-N-(4-formyl-3-hydroxyphenethyl)benzamide], the IC50 was 100 to 500 nM in test [1], below 100 nM in test [2] and below 100 nM in test [3]. Besides, the “AKT1 E17K IC50: Selectivity vs AKT1 WT” value in test [3] came to 1.6. In test [3], the “AKT1 E17K IC50: Selectivity vs AKT2” value was 13.

As for `Nc1ncccc1-c1nc2ccc(-c3ccccc3)nc2n1-c1ccc(C2(NCCc3ccc(C=O)c(O)c3)CCC2)cc1` [Compound 134, 4-(2-((1-(4-(2-(2-aminopyridin-3-yl)-5-phenyl-3H-imidazo[4,5-b]pyridin-3-yl)phenyl)cyclobutyl)amino)ethyl)-2-hydroxybenzaldehyde], the IC50 in test [1] is above 500 nM. Also, in test [2], the IC50 is above 500 nM. Further, in test [3], the “AKT1 E17K IC50: Selectivity vs AKT1 WT” value amounted to 2.3, the “AKT1 E17K IC50: Selectivity vs AKT2” value is reported as 4.3 and the IC50 was above 500 nM.

`Nc1ncccc1-c1nc2ccc(-c3ccccc3)nc2n1-c1ccc(CNCCc2ccc(O)c(C=O)c2)cc1` [Compound 135, 5-(2-((4-(2-(2-aminopyridin-3-yl)-5-phenyl-3H-imidazo[4,5-b]pyridin-3-yl)benzyl)amino)ethyl)-2-hydroxybenzaldehyde]: the IC50 in test [1] was below 100 nM. In addition, the IC50 in test [2] was below 100 nM. Moreover, in test [3], the “AKT1 E17K IC50: Selectivity vs AKT1 WT” value was 0.16, the “AKT1 E17K IC50: Selectivity vs AKT2” value is 0.72 and the half-inhibitory concentration (IC50) was below 100 nM.

Compound `Nc1ncccc1-c1nc2ccc(-c3ccccc3)nc2n1-c1ccc(CN2CCC(c3ccc(O)c(C=O)c3)CC2)cc1` [Compound 136, 5-(1-(4-(2-(2-aminopyridin-3-yl)-5-phenyl-3H-imidazo[4,5-b]pyridin-3-yl)benzyl)piperidin-4-yl)-2-hydroxybenzaldehyde] came in with an IC50 in test [1] below 100 nM. Moreover, the IC50 in test [2] was below 100 nM. Further, in test [3], the “AKT1 E17K IC50: Selectivity vs AKT1 WT” value is given as 1.3, the “AKT1 E17K IC50: Selectivity vs AKT2” value was 1.9 and the IC50 was below 100 nM.

Consider `Nc1ncccc1-c1nc2ccc(-c3ccccc3)nc2n1-c1ccc(C(=O)NCc2ccc(C=O)c(O)c2)cc1` [Compound 137, 4-(2-(2-aminopyridin-3-yl)-5-phenyl-3H-imidazo[4,5-b]pyridin-3-yl)-N-(4-formyl-3-hydroxybenzyl)benzamide], for which, in test [1], the IC50 lay within 100 to 500 nM. The IC50 in test [2] was below 100 nM. In test [3], the “AKT1 E17K IC50: Selectivity vs AKT1 WT” value stood at 0.91, the “AKT1 E17K IC50: Selectivity vs AKT2” value is on record as 4.1 and the IC50 was below 100 nM.

Regarding `Nc1ncccc1-c1nc2ccc(-c3ccc(N4CCOCC4)cc3)nc2n1-c1ccc(CNC(=O)Cc2ccc(C=O)c(O)c2)cc1` [Example 1, N-(4-(2-(2-aminopyridin-3-yl)-5-(4-morpholinophenyl)-3H-imidazo[4,5-b]pyridin-3-yl)benzyl)-2-(4-formyl-3-hydroxyphenyl)acetamide], the IC50 in test [1] is above 500 nM. Moreover, in test [2], the IC50 was below 100 nM. Moreover, in test [3], the “AKT1 E17K IC50: Selectivity vs AKT1 WT” value worked out at 6.1, the “AKT1 E17K IC50: Selectivity vs AKT2” value is on record as 85 and the IC50 was below 100 nM.

As for `CC(=O)Nc1cccc(-c2ccc3nc(-c4cccnc4N)n(-c4ccc(CNC(=O)Cc5ccc(C=O)c(O)c5)cc4)c3n2)c1` [Example 2, N-(4-(5-(3-acetamidophenyl)-2-(2-aminopyridin-3-yl)-3H-imidazo[4,5-b]pyridin-3-yl)benzyl)-2-(4-formyl-3-hydroxyphenyl)acetamide], the IC50 in test [1] is above 500 nM. In addition, in test [2], the IC50 is 100 to 500 nM. In test [3], the “AKT1 E17K IC50: Selectivity vs AKT1 WT” value amounted to 3.1, the “AKT1 E17K IC50: Selectivity vs AKT2” value is 19 and the IC50 was below 100 nM.

Turning to `Nc1ncccc1-c1nc2ccc(N3CCOCC3)nc2n1-c1ccc(CNC(=O)c2ccc(O)c(C=O)c2)cc1` [Example 3, N-(4-(2-(2-aminopyridin-3-yl)-5-morpholino-3H-imidazo[4,5-b]pyridin-3-yl)benzyl)-3-formyl-4-hydroxybenzamide], the IC50 in test [1] is above 500 nM. Moreover, the IC50 in test [2] fell in the range of 100 to 500 nM. Also, in test [3], the “AKT1 E17K IC50: Selectivity vs AKT1 WT” value is on record as 2.2, the “AKT1 E17K IC50: Selectivity vs AKT2” value came to 36 and the IC50 is 100 to 500 nM.

For the compound `Nc1ncccc1-c1nc2ccc(-c3ccccc3)nc2n1-c1ccc(CNC(=O)c2cc(C=O)c(O)cc2F)cc1` [Example 4, N-({4-[2-(2-aminopyridin-3-yl)-5-phenylimidazo[4,5-b]pyridin-3-yl]phenyl}methyl)-2-fluoro-5-formyl-4-hydroxybenzamide], the IC50 in test [1] is above 500 nM. In test [2], this compound returned a half-inhibitory concentration (IC50) below 100 nM. Besides, in test [3], the “AKT1 E17K IC50: Selectivity vs AKT1 WT” value is 2, the “AKT1 E17K IC50: Selectivity vs AKT2” value is on record as 38 and the IC50 was below 100 nM.

`Nc1ncccc1-c1nc2ccc(-c3ccccc3)nc2n1-c1ccc(CNC(=O)Cc2ccc(C=O)c(O)c2C(F)(F)F)cc1` [Example 5, N-(4-(2-(2-aminopyridin-3-yl)-5-phenyl-3H-imidazo[4,5-b]pyridin-3-yl)benzyl)-2-(4-formyl-3-hydroxy-2-(trifluoromethyl)phenyl)acetamide]: the IC50 in test [1] is above 500 nM; in test [2], below 100 nM; in test [3], below 100 nM. The “AKT1 E17K IC50: Selectivity vs AKT1 WT” value in test [3] is listed as 2.9. The “AKT1 E17K IC50: Selectivity vs AKT2” value in test [3] is 32.

The compound `Nc1ncccc1-c1nc2ccc(C3CC3C(=O)N3CCOCC3)nc2n1-c1ccc(CNC(=O)Cc2ccc(C=O)c(O)c2)cc1` (stereo not drawn) [Example 6, N-({4-[2-(2-aminopyridin-3-yl)-5-[2-(morpholine-4-carbonyl)cyclopropyl]imidazo[4,5-b]pyridin-3-yl]phenyl}methyl)-2-(4-formyl-3-hydroxyphenyl)acetamide] had an IC50 in test [1] above 500 nM. For the same compound, the IC50 in test [2] is above 500 nM. Moreover, in test [3], the “AKT1 E17K IC50: Selectivity vs AKT1 WT” value came out at 8.7, the “AKT1 E17K IC50: Selectivity vs AKT2” value is on record as 18 and the IC50 fell in the range of 100 to 500 nM.
